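Each compound was tested at five concentrations against cells in 96-well plates for 48 hours. GI50 is the concentration that inhibits growth by half. The concentration for full growth arrest is given as TGI.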
Columns and labels:
Assay in all cases: NCI-60 cell line screen, 48 h
TK-10 renal = tested on: TK-10 renal
HT29 colon = tested on: HT29 colon
RXF 393 renal = tested on: RXF 393 renal
SK-MEL-5 melanoma = tested on: SK-MEL-5 melanoma
SN12C renal = tested on: SN12C renal
SR leukemia = tested on: SR leukemia
A498 renal = tested on: A498 renal
NCI/ADR-RES ovarian = tested on: NCI/ADR-RES ovarian
OVCAR-8 ovarian = tested on: OVCAR-8 ovarian
SNB-75 CNS = tested on: SNB-75 CNS

Structure (SMILES)	GI50 (TK-10 renal)	TGI (TK-10 renal)	GI50 (HT29 colon)	TGI (HT29 colon)	GI50 (RXF 393 renal)	TGI (RXF 393 renal)	GI50 (SK-MEL-5 melanoma)	TGI (SK-MEL-5 melanoma)	GI50 (SN12C renal)	TGI (SN12C renal)	GI50 (SR leukemia)	TGI (SR leukemia)	GI50 (A498 renal)	TGI (A498 renal)	GI50 (NCI/ADR-RES ovarian)	TGI (NCI/ADR-RES ovarian)	GI50 (OVCAR-8 ovarian)	TGI (OVCAR-8 ovarian)	GI50 (SNB-75 CNS)	TGI (SNB-75 CNS)
CCN1C(=O)N(CC)C2C1NC(=S)N2/N=C/C=C/c1ccccc1 (stereo unspecified)	3.66 µM	> 100 µM	0.111 µM	> 31.8 µM	0.0899 µM	> 100 µM	0.145 µM	11.3 µM	0.385 µM	> 100 µM	0.0444 µM	> 100 µM	0.0249 µM	0.146 µM	0.0935 µM	> 100 µM	0.27 µM	> 100 µM		
Oc1cn(-c2ccc(Cl)cc2)nc1-c1n[nH]c(=S)n1-c1ccc(F)cc1	28.1 µM	> 100 µM	43.2 µM	> 100 µM	28 µM	> 100 µM	14.3 µM	35.9 µM	16.9 µM	50.3 µM		> 100 µM	34.6 µM	76.5 µM	15.4 µM	54.9 µM	27.3 µM	> 100 µM		
C/C(=C/CCC(C)[C@@H]1CC[C@]2(C)C3=C(CC[C@@]12C)[C@@]1(C)CCC(=O)C(C)(C)[C@@H]1CC3)C(=O)O (stereo partly specified)	1.45 µM	2.83 µM	1.39 µM	3.04 µM	1.51 µM	3.08 µM	1.07 µM	2.44 µM	1.21 µM	2.89 µM	1.14 µM	2.93 µM	0.975 µM	2.39 µM	1.54 µM	3.26 µM	1.42 µM	3.2 µM	1.69 µM	3.22 µM
CC(=O)Nc1cccc(C#Cc2cncnc2Nc2ccc(OCc3cccc(F)c3)c(Cl)c2)c1	1.6 µM	16.3 µM	7.89 µM	> 25 µM	0.753 µM	> 15.1 µM	8.12 µM	> 25 µM	10.2 µM	> 25 µM	> 18.7 µM	> 25 µM	1.1 µM	> 16.6 µM	6.86 µM	> 25 µM	6.35 µM	24.9 µM	13.2 µM	> 25 µM
O=C(Nc1nc2ccc(S(=O)(=O)Nc3ccc(C4(C(F)(F)F)CC4)cc3)cc2[nH]1)c1cnccn1	8.16 µM	22.5 µM	1.2 µM	14.4 µM	1.12 µM	4.28 µM	0.693 µM	4.3 µM	4.46 µM	17.6 µM	0.359 µM	2.96 µM	2.26 µM	8.17 µM	1.73 µM	11.8 µM	5.51 µM	31.8 µM	1.53 µM	6.45 µM
Nc1c(C(=O)Nc2ccccc2)sc2nc3c(cc12)C(=O)CCC3	0.807 µM	> 100 µM	0.354 µM		0.19 µM	0.619 µM	0.249 µM	5.7 µM	6.2 µM	> 100 µM	0.533 µM	> 100 µM	0.282 µM		0.399 µM	10.6 µM	2.46 µM	> 100 µM	0.494 µM	> 88.7 µM
Nc1nc(-c2ccccc2)c(CC(=O)O)s1		> 100 µM		> 100 µM		> 100 µM		> 100 µM		> 100 µM		> 100 µM		> 100 µM		> 100 µM		> 100 µM		> 100 µM
N#CN1CC[C@H](C(=O)Nc2ncc(-c3ccccc3)s2)C1	1.19 µM	2.99 µM	0.313 µM	1.82 µM			0.829 µM	3.58 µM	0.471 µM	7.24 µM	0.222 µM	1.29 µM	1.62 µM	3.45 µM	0.724 µM	8.01 µM	0.45 µM	6.46 µM	0.374 µM	2.69 µM
CN(C)CCNC(=O)Nc1ccc(N(C)c2ccnc(Nc3ccc(CS(C)(=O)=O)cc3)n2)cc1	> 25 µM	> 25 µM	> 25 µM	> 25 µM	> 25 µM	> 25 µM	> 25 µM	> 25 µM	> 25 µM	> 25 µM	14.8 µM	> 25 µM	> 25 µM	> 25 µM	> 25 µM	> 25 µM	> 25 µM	> 25 µM	> 12.7 µM	> 25 µM
OCCNc1nc2ccccc2c2[nH]c3ccccc3c12	0.744 µM	5.16 µM	0.321 µM	2.71 µM	0.146 µM	0.646 µM	0.979 µM	2.54 µM	0.34 µM	11.4 µM	0.206 µM	5.95 µM	0.36 µM	1.72 µM	0.738 µM	5.18 µM	0.455 µM	4.7 µM	1.88 µM	4.2 µM
O=c1[nH]c(=S)[nH]c(O)c1/C=C1\C=Nc2ccccc21	25.1 µM	> 100 µM	3.37 µM	10.6 µM	3.71 µM	14.6 µM	11.7 µM	27.2 µM	7.95 µM	59.4 µM	1.72 µM	4.52 µM	12.3 µM	28.4 µM	6.64 µM	58 µM	3.47 µM	> 100 µM	1.73 µM	5 µM
Cn1cc(-c2ccc3ncc(-c4ccc(CC(=O)Nc5cc(C(C)(C)C)nn5C)cc4)cc3c2)cn1	1.52 µM	> 20 µM	3.99 µM	> 20 µM	1.14 µM	> 20 µM	0.756 µM	3 µM	0.854 µM	> 20 µM	0.967 µM	> 20 µM	0.422 µM	1.66 µM	0.749 µM	6.77 µM	0.736 µM	7.08 µM	0.37 µM	> 20 µM
O=C(CI)NC(=O)NC(=O)NCc1ccccc1	1.86 µM	4.12 µM	2.66 µM	6.72 µM	2.98 µM	9.31 µM	4.73 µM	15.9 µM	3.5 µM	14.6 µM	0.804 µM	3.1 µM	15.9 µM	30.9 µM	4.62 µM	30.3 µM	4.32 µM	19.6 µM	11.3 µM	29.2 µM

Reference: PubChem BioAssay (NCI)
